Legend:
[1] = system: lipid peroxidation in rat brain homogenate; test: Inhibition of lipid peroxidation (TBARS) in rat brain homogenate, FeSO4-induced; type: biochemical; conditions: for Inhibition (%) of lipid peroxidation / TBARS / IC50: mean ± SEM, n = 3; for IC50: rat brain homogenate, TBARS
Description: Adult male Wistar rats (200–250 g) were provided by the Instituto de Fisiología Celular, Universidad Nacional Autónoma de México (UNAM). The procedures and care of animals were conducted in conformity with the Mexican Official Norm for Animal Care and Handling NOM-062-ZOO-1999. They were maintained at 23 ± 2 °C on a 12/12 h light-dark cycle with ad libitum access to food and water.
Animal sacrifice was carried out avoiding unnecessary pain. The rats were sacrificed with CO2. The cerebral tissue (whole brain) was rapidly dissected and homogenized in phosphate-buffered saline (PBS) solution (0.2 g of KCl, 0.2 g of KH2PO4, 8 g of NaCl, and 2.16 g of NaHPO4.7H2O/L, pH adjusted to 7.4) as described elsewhere to produce a 1/10 (w/v) homogenate. The homogenate was centrifuged at 800 rcf (relative centrifugal field) for 10 min. The supernatant protein content was measured using Folin and Ciocalteu’s phenol reagent and adjusted with PBS at 2.666 mg of protein/mL.
As an index of lipid peroxidation, TBARS levels were measured using rat brain homogenates according to the method described by Ng and co-workers, with some modifications. A supernatant (375 µL) was added with 50 µL of 20 µM EDTA and 25 µL of each sample concentration dissolved in DMSO (25 µL of DMSO for the control group) and incubated at 37 °C for 30 min. The lipid peroxidation was started adding 50 µL of freshly prepared 100 µM FeSO4 solution (final concentration 10 µM) and incubated at 37 °C for 1h. The TBARS measurements were obtained as described by Ohkawa and co-workers, with some modifications. To each tube 500 µL of TBA reagent (0.5% 2-thiobarbituric acid in 0.05 N NaOH and 30% trichloroacetic acid, in 1:1 ratio) was added and the final suspension was cooled on ice for 10 min, centrifuged at 13,400 rcf for 5 min and heated at 80 °C in a water bath for 30 min. After cooling at room temperature, the absorbance of 200 µL of supernatant was measured at λ = 540 nm in a Microplate Reader Synergy/HT BIOTEK Instrument, Inc., Winooski, VT, USA. The concentration of TBARS was calculated by interpolation on a standard curve of tetra-methoxypropane (TMP) as a precursor of MDA [38]. Results are expressed as n moles of TBARS per mg of protein. The inhibition ratio (IR [%]) was calculated using the formula IR = (C − E) × 100/C, where C is the control absorbance and E is the sample absorbance. Butylated hydroxytoluene (BHT) and α tocopherol were used as positive standards. All data are presented as mean ± standard error (SEM). The data were analyzed by one-way analysis of variance (ANOVA) followed by Dunnett’s test for comparison against a control. Values of p ≤ 0.05 (*) and p ≤ 0.01 (**) were considered statistically significant.

[2] = system: U251 (human glioblastoma cell line); test: Cytotoxicity, sulforhodamine B (SRB) microculture assay; type: cell-based; conditions: for inhibition at 25 µM: Homo sapiens, U-251, 25 μM, read-out: % of Inhibition (cytotoxic screening)
Description: (§1) The cytotoxicity of all compounds was tested against six cancer cell lines: U251 (human glioblastoma cell line), PC-3 (human prostate adenocarcinoma), K562 (human chronic myelogenous leukemia), HCT-15 (human colon adenocarcinoma), MCF-7 (human mammary adenocarcinoma), and SKLU-1 (human lung adenocarcinoma). Cell lines were supplied by the U.S. National Cancer Institute (NCI). The cell lines were cultured in an RPMI-1640 medium supplemented with 10% fetal bovine serum, […] L-glutamine, 10,000 units/mL penicillin G sodium, 10,000 µg/mL streptomycin sulfate, 25 µg/mL amphotericin B (Invitrogen/Gibco™, Thermo Fisher Scientific, Waltham, MA, USA), and 1% non-essential amino acids (Gibco). They were maintained at 37 °C in a humidified atmosphere with 5% CO2. […] The human tumor cytotoxicity was determined using the protein-binding dye sulforhodamine B (SRB) in a microculture assay to measure cell growth, as described in the protocols established by the NCI [39, 40, 41].

[3] = system: HCT-15 (human colon adenocarcinoma); test: as above; type: cell-based; conditions: for inhibition at 25 µM: Homo sapiens, read-out: % of Inhibition (cytotoxic screening)
Description: as §1

[4] = system: K562 (human chronic myelogenous leukemia); test: as above; type: cell-based; conditions: for inhibition at 25 µM: Homo sapiens, read-out: % of Inhibition (cytotoxic screening)
Description: as §1

[5] = system: MCF-7 (human mammary adenocarcinoma); test: as above; type: cell-based; conditions: for inhibition at 25 µM: Homo sapiens, MCF7, 25 μM, read-out: % of Inhibition (cytotoxic screening)
Description: as §1

[6] = system: SKLU-1 (human lung adenocarcinoma); test: as above; type: cell-based; conditions: for inhibition at 25 µM: Homo sapiens, SK-LU-1, 25 μM, read-out: % of Inhibition (cytotoxic screening)
Description: as §1

[7] = system: PC-3 (human prostate adenocarcinoma); test: as above; type: cell-based; conditions: for inhibition at 25 µM: Homo sapiens, read-out: % of Inhibition (cytotoxic screening)
Description: as §1

[8] = Cytotoxicity towards healthy cell line; type: cell-based, monkey; conditions: monkey, COS-7 kidney cells; COS7; 25 μM; read-out: % of Inhibition (cytotoxic screening)
[9] = system: healthy monkey kidney cell line (COS-7); test: Cytotoxicity towards healthy cell line; type: cell-based; conditions: COS7
[10] = concentration 1 (unit not given)
[11] = concentration 10 (unit not given)
[12] = concentration 100 (unit not given)

## O=C(/C=C(O)/C=C/c1cccs1)/C=C/c1cccs1 [ThiopheneCurc, Thiophenecurcumin]
[1]; 10 μM
  Inhibition (%) of lipid peroxidation: 17.68 ± 0.97%
  TBARS: 4.398 ± 0.177 nmol/mg prot.
[1]; 17.78 μM
  Inhibition (%) of lipid peroxidation: 40.94 ± 0.36%
  TBARS: 3.157 ± 0.139 nmol/mg prot.
[1]; 31.62 μM
  Inhibition (%) of lipid peroxidation: 61.81 ± 1.08%
  TBARS: 2.042 ± 0.116 nmol/mg prot.
[1]; 56.23 μM
  Inhibition (%) of lipid peroxidation: 71.25 ± 1.79%
  TBARS: 1.528 ± 0.035 nmol/mg prot.
[1]; 100 μM
  Inhibition (%) of lipid peroxidation: 73.06 ± 3.06%
  TBARS: 1.425 ± 0.094 nmol/mg prot.
[1]; 177.83 μM
  Inhibition (%) of lipid peroxidation: 66.63 ± 3.83%
  TBARS: 1.766 ± 0.119 nmol/mg prot.
[1]; [10]
  % of Inhibition (lipoperoxidation screening): 0.23%
[1]; [11]
  % of Inhibition (lipoperoxidation screening): 25.43%
[1]; [12]
  % of Inhibition (lipoperoxidation screening): 51.90%
[1]
  IC50: 22.02 ± 0.15 µM
[2]
  inhibition at 25 µM: 0%
[3]; 25 μM
  inhibition at 25 µM: 0%
[4]; 25 μM
  inhibition at 25 µM: 4.4%
[5]
  inhibition at 25 µM: 13.4%
[6]
  inhibition at 25 µM: 0%
[7]; 25 μM
  inhibition at 25 µM: 14.8%
[8]
  inhibition at 25 µM: 0%

## O=C(C=C([O-])/C=C/c1ccco1)/C=C/c1ccco1.O=C(C=C([O-])/C=C/c1ccco1)/C=C/c1ccco1.[Cu+2] [FuranCurc-Cu]
[1]; [10]
  % of Inhibition (lipoperoxidation screening): 0.83%
[1]; [11]
  % of Inhibition (lipoperoxidation screening): 27.46%
[1]; [12]
  % of Inhibition (lipoperoxidation screening): 88.94%
[2]
  IC50: 4 ± 0.3 µM
[2]; 25 μM
  % of Inhibition (cytotoxic screening): 100%
[3]; 25 μM
  % of Inhibition (cytotoxic screening): 72.4%
[4]; 25 μM
  % of Inhibition (cytotoxic screening): 90.1%
[5]; 25 μM
  % of Inhibition (cytotoxic screening): 92.8%
[6]
  IC50: 6.5 ± 0.2 µM
[6]; 25 μM
  % of Inhibition (cytotoxic screening): 95.0%
[7]
  IC50: 3 ± 0.1 µM
[7]; 25 μM
  % of Inhibition (cytotoxic screening): 100%
[9]; 25 μM
  % of Inhibition (cytotoxic screening): 100%

## Cn1cccc1/C=C/C(=O)C=C([O-])/C=C/c1cccn1C.Cn1cccc1/C=C/C(=O)C=C([O-])/C=C/c1cccn1C.[Cu+2] [N-methyl-pyrCurc-Cu]
[1]; [10]
  % of Inhibition (lipoperoxidation screening): −7.20%
[1]; [11]
  % of Inhibition (lipoperoxidation screening): 38.48%
[1]; [12]
  % of Inhibition (lipoperoxidation screening): 71.20%
[2]
  IC50: 10.6 ± 1 µM
[2]; 25 μM
  % of Inhibition (cytotoxic screening): 71.62%
[3]
  IC50: 12.9 ± 2.1 µM
[3]; 25 μM
  % of Inhibition (cytotoxic screening): 100%
[4]
  IC50: 5.9 ± 1.5 µM
[4]; 25 μM
  % of Inhibition (cytotoxic screening): 74.67%
[5]
  IC50: 10.8 ± 1.7 µM
[5]; 25 μM
  % of Inhibition (cytotoxic screening): 100%
[6]
  IC50: 10.3 ± 1 µM
[6]; 25 μM
  % of Inhibition (cytotoxic screening): 100%
[7]; 25 μM
  % of Inhibition (cytotoxic screening): 64.99%
[9]; 25 μM
  % of Inhibition (cytotoxic screening): 100%

## COc1cc(/C=C/C(=O)CC(=O)/C=C/c2ccc(O)c(OC)c2)ccc1O [Curc, Curcumin]
[2]
  inhibition at 25 µM: 67.1%
[3]; 25 μM
  inhibition at 25 µM: 80%
[4]; 25 μM
  inhibition at 25 µM: 80.1%
[5]
  inhibition at 25 µM: 82.4%
[6]
  inhibition at 25 µM: 94.5%
[7]; 25 μM
  inhibition at 25 µM: 94.4%
[8]
  inhibition at 25 µM: 71.6%

## O=C(C=C([O-])/C=C/c1cccs1)/C=C/c1cccs1.O=C(C=C([O-])/C=C/c1cccs1)/C=C/c1cccs1.[Cu+2] [ThiopheneCurc-Cu]
[1]; 3.16 μM
  Inhibition (%) of lipid peroxidation: 12.51 ± 3.57%
  TBARS: 4.665 ± 0.144 nmol/mg prot.
[1]; 5.62 μM
  Inhibition (%) of lipid peroxidation: 31.7 ± 2.33%
  TBARS: 3.651 ± 0.200 nmol/mg prot.
[1]; 10 μM
  Inhibition (%) of lipid peroxidation: 49.46 ± 1.96%
  TBARS: 2.693 ± 0.029 nmol/mg prot.
[1]; 17.78 μM
  Inhibition (%) of lipid peroxidation: 57.25 ± 1.19%
  TBARS: 2.280 ± 0.052 nmol/mg prot.
[1]; 31.62 μM
  Inhibition (%) of lipid peroxidation: 55.9 ± 1.51%
  TBARS: 2.351 ± 0.046 nmol/mg prot.
[1]; 56.23 μM
  Inhibition (%) of lipid peroxidation: 58.14 ± 2.66%
  TBARS: 2.225 ± 0.055 nmol/mg prot.
[1]; [10]
  % of Inhibition (lipoperoxidation screening): 5.67%
[1]; [11]
  % of Inhibition (lipoperoxidation screening): 51.00%
[1]; [12]
  % of Inhibition (lipoperoxidation screening): 53.96%
[1]
  IC50: 10.3 ± 0.59 µM
[2]; 25 μM
  % of Inhibition (cytotoxic screening): 58.2%
[4]
  IC50: 38.6 ± 8.1 µM
[4]; 25 μM
  % of Inhibition (cytotoxic screening): 84.4%
[5]; 25 μM
  % of Inhibition (cytotoxic screening): 57.9%
[6]; 25 μM
  % of Inhibition (cytotoxic screening): 91.0%
[7]; 25 μM
  % of Inhibition (cytotoxic screening): 63.6%
[9]; 25 μM
  % of Inhibition (cytotoxic screening): 0%

## Cn1cccc1/C=C/C(=O)C=C([O-])/C=C/c1cccn1C.Cn1cccc1/C=C/C(=O)C=C([O-])/C=C/c1cccn1C.[Mg+2] [N-methyl-pyrCurc-Mg]
[1]; [10]
  % of Inhibition (lipoperoxidation screening): −4.22%
[1]; [11]
  % of Inhibition (lipoperoxidation screening): 12.24%
[1]; [12]
  % of Inhibition (lipoperoxidation screening): 69.70%
[2]; 12.5 μM
  % of Inhibition (cytotoxic screening): 19.5%
[3]; 12.5 μM
  % of Inhibition (cytotoxic screening): 15.8%
[4]; 12.5 μM
  % of Inhibition (cytotoxic screening): 28.8%
[5]; 12.5 μM
  % of Inhibition (cytotoxic screening): 35.7%
[6]; 12.5 μM
  % of Inhibition (cytotoxic screening): 18.1%
[7]; 12.5 μM
  % of Inhibition (cytotoxic screening): 1.4%
[9]; 12.5 μM
  % of Inhibition (cytotoxic screening): 23.4%

— publication PMC9919861, “Homoleptic Complexes of Heterocyclic Curcuminoids with Mg(II) and Cu(II): First Conformationally Heteroleptic Case, Crystal Structures, and Biological Properties” (Molecules, 2023)
